The subject of assay [1] is T. cruzi epimastigotes, Tulahuen strain. Kind of assay: Screening against extracellular epimastigotes, Tulahuen strain. It is filed as cell-based, Trypanosoma cruzi. The following applies: for Selectivity index (SI), epimastigotes, Tulahuen strain: IC50 Vero cells/IC50 epimastigotes; for IC50: Trypanosoma cruzi, TULAHUEN, 48 h + 24 h resazurin, read-out: Activity IC50, epimastigote form, Tulahuen strain. (In general: The colour change of resazurin is a common sign of viable cells or microbes.)

Another assay deals with Vero cells. Kind of assay: Cytotoxicity test on Vero cells. It is filed as cell-based. The following applies: Chlorocebus sabaeus, 48 h + 24 h resazurin, read-out: Toxicity IC50 Vero cell.
Assay [2] relates to T. cruzi amastigotes, Tulahuen strain. In words: Screening against intracellular amastigotes, Tulahuen strain. It is filed as cell-based, Trypanosoma cruzi. The following applies: Trypanosoma cruzi, TULAHUEN; amastigotes in Vero cells, 72 h; read-out: activity IC50, Tulahuen strain, am. forms.
In assay [3] the test system is T. cruzi amastigotes, Arequipa strain. Kind of assay: Screening against intracellular amastigotes, Arequipa strain. It is filed as cell-based, Trypanosoma cruzi. The conditions noted are these: for selectivity index (SI), Arequipa strain, am. forms: IC50 Vero cells/IC50 amastigotes; for IC50: Trypanosoma cruzi, amastigotes in Vero cells, 72 h, read-out: activity IC50, Arequipa strain, am. forms.

For assay [4], the system named is T. cruzi trypomastigotes, Tulahuen strain. In words: Screening against bloodstream trypomastigotes, Tulahuen strain. It is filed as cell-based, Trypanosoma cruzi. The following applies: Trypanosoma cruzi, TULAHUEN; bloodstream trypomastigotes, 24 h + 4 h resazurin; read-out: activity IC50, Tulahuen strain, trypom. forms.
In assay [5] the test system is T. cruzi epimastigotes, SN3 strain. Kind of assay: Screening against extracellular epimastigotes, SN3 strain. It is filed as cell-based, Trypanosoma cruzi. The following applies: for IC50: Trypanosoma cruzi, 48 h + 24 h resazurin, read-out: Activity IC50, epimastigote form, SN3 strain; for Selectivity index (SI), epimastigotes, SN3 strain: IC50 Vero cells/IC50 epimastigotes.

Assay [6] has as its system T. cruzi epimastigotes, Arequipa strain. Kind of assay: Screening against extracellular epimastigotes, Arequipa strain. It is filed as cell-based, Trypanosoma cruzi. The conditions noted are these: for Selectivity index (SI), epimastigotes, Arequipa strain: IC50 Vero cells/IC50 epimastigotes; for IC50: Trypanosoma cruzi, 48 h + 24 h resazurin, read-out: Activity IC50, epimastigote form, Arequipa strain.

The test system of assay [7] is T. cruzi trypomastigotes, Arequipa strain. Kind of assay: Screening against bloodstream trypomastigotes, Arequipa strain. The following applies: for selectivity index (SI), Arequipa strain, trypom. forms: IC50 Vero cells/IC50 trypomastigotes; for IC50: Trypanosoma cruzi, bloodstream trypomastigotes, 24 h + 4 h resazurin, read-out: activity IC50, Arequipa strain, trypom. forms. It is filed as cell-based, Trypanosoma cruzi.

In assay [8] the test system is T. cruzi trypomastigotes, SN3 strain. In words: Screening against bloodstream trypomastigotes, SN3 strain. It is filed as cell-based, Trypanosoma cruzi.
For assay [9], the system named is T. cruzi amastigotes, SN3 strain. Kind of assay: Screening against intracellular amastigotes, SN3 strain. It is filed as cell-based, Trypanosoma cruzi.

The results in this text go back to paper PMC8480776, “Selenium Derivatives as Promising Therapy for Chagas Disease: In Vitro and In Vivo Studies” (ACS Infectious Diseases, 2021).

Molecules are shown by their SMILES.

A word on the IC50: it is the midpoint of a concentration-inhibition curve. Turning to `N#C[Se]c1ccc(NC(=O)c2ccc([N+](=O)[O-])cc2)cc1` [Compound 25], in assay [1], the “Selectivity index (SI), epimastigotes, Tulahuen strain” value (from here on “Selectivity index … Tulahuen strain”) is 20. Moreover, the IC50 in [1] was 25.3 ± 4.1 µM; in assay [2] it was more than 50 µM; in assay [3], 49.3 ± 4.1 µM; in assay [4], 42.2 ± 3.9 µM; in [5], more than 50 µM; in assay [6], 26.3 ± 2.1 µM. Further, the IC50 in [7] was determined as 35.8 ± 5.8 µM. In addition, the CC50 with Vero cells was found to be 516 ± 42.2 µM. The “selectivity index (SI), Arequipa strain, am. forms” value in [3] worked out at 10. The “Selectivity index (SI), epimastigotes, Arequipa strain” value in [6] was found to be 20. Also, the “selectivity index (SI), Arequipa strain, trypom. forms” value in [7] was determined as 14.
Turning to `N#C[Se]c1ccc(NC(=O)c2cccs2)cc1` [Compound 29], in [1], the “Selectivity index … Tulahuen strain” value worked out at 9 and the 50% inhibitory concentration (IC50) is 6.6 ± 0.4 µM. Besides, the CC50 with Vero cells is 60.9 ± 8.7 µM. For the same molecule, in assay [3], the “selectivity index (SI), Arequipa strain, am. forms” value worked out at 4 and the 50% inhibitory concentration (IC50) was 15.4 ± 2 µM. Further, in assay [5], the “Selectivity index (SI), epimastigotes, SN3 strain” value is 7 and the IC50 amounted to 8.9 ± 1.1 µM. Also, in [6], the “Selectivity index (SI), epimastigotes, Arequipa strain” value is 11 and the IC50 was determined as 5.4 ± 0.8 µM. In assay [7], the “selectivity index (SI), Arequipa strain, trypom. forms” value came to 5 and the IC50 was found to be 12.7 ± 1.2 µM.
`N#C[Se]c1ccc(NC(=O)/C=C/c2ccccc2)cc1` [Compound 32]: the IC50 in assay [1] is 7.9 ± 0.5 µM; in assay [5] it was 4.8 ± 0.8 µM; in assay [6] it was 7.4 ± 0.9 µM. Besides, the CC50 in the assay with Vero cells is less than 50 µM.
As to `N#C[Se]c1ccc(NC(=O)c2cccc3ccccc23)cc1` [Compound 33], in [1], the “Selectivity index … Tulahuen strain” value turned out to be 5. Besides, the IC50 in assay [1] is 10.8 ± 1.2 µM; in [8] (Trypanosoma cruzi, bloodstream trypomastigotes, 24 h + 4 h resazurin, read-out: activity IC50, SN3 strain, trypom. forms), 14.1 ± 1.1 µM; in [9] (Trypanosoma cruzi, amastigotes in Vero cells, 72 h, read-out: activity IC50, SN3 strain, am. forms), 16.9 ± 1.4 µM; in [5], 4.8 ± 0.6 µM; in assay [6], 9.4 ± 1.2 µM. For the same molecule, in assay [8] (IC50 Vero cells/IC50 trypomastigotes), the “selectivity index (SI), SN3 strain, trypom. forms” value is 4. Moreover, the “selectivity index (SI), SN3 strain, am. forms” value in [9] (IC50 Vero cells/IC50 amastigotes) is listed as 3. Besides, in the assay with Vero cells, the CC50 was 52.7 ± 4.9 µM. In addition, in [5], the “Selectivity index (SI), epimastigotes, SN3 strain” value was 11. Besides, the “Selectivity index (SI), epimastigotes, Arequipa strain” value in assay [6] came to 6.
In the case of `CSc1ccc(C(=O)Nc2ccc([Se]C#N)cc2)cc1` [Compound 34], in [1], the “Selectivity index … Tulahuen strain” value is 2 and the half-inhibitory concentration (IC50) was determined as 29.1 ± 3.1 µM. The CC50 in the assay on Vero cells was 72.6 ± 9.9 µM. Further, in assay [5], the “Selectivity index (SI), epimastigotes, SN3 strain” value is 3 and the IC50 amounted to 21 ± 2.7 µM. Moreover, in [6], the “Selectivity index (SI), epimastigotes, Arequipa strain” value is listed as 4 and the IC50 is 16.4 ± 2 µM.
For the molecule `COP(=O)(Nc1ccc([Se]C#N)cc1)OC` [Compound 36], the IC50 worked out at 18.4 ± 1.4 µM in assay [1], 4.3 ± 0.7 µM in [5] and 28.1 ± 3.2 µM in assay [6]. Also, the CC50 in the assay on Vero cells is less than 50 µM.
The matching figures for `N#C[Se]c1ccc(NP(=O)(Oc2ccccc2)Oc2ccccc2)cc1` [Compound 37]: 22.3 ± 3 µM, 30.3 ± 3.2 µM, 20.1 ± 2.8 µM and less than 50 µM.
In the same order, the values of `CCOP(=O)(Nc1ccc([Se]C#N)cc1)OCC` [Compound 38] are more than 50 µM, more than 50 µM, more than 50 µM and less than 50 µM.
For the molecule `N#C[Se]c1ccc(NP(=O)(Nc2ccccc2)Oc2ccccc2)cc1` (centres unmarked) [Compound 40], the concentration for half-maximal inhibition (IC50) in assay [1] was more than 50 µM; in assay [5], more than 50 µM; in assay [6], 41.1 ± 4.4 µM. Further, in the assay on Vero cells, the CC50 is less than 50 µM.
Regarding `Cc1ccc(OP(=O)(Nc2ccc([Se]C#N)cc2)Oc2ccc(C)cc2)cc1` [Compound 41], the IC50 is 29.9 ± 2.1 µM in [1], 43.2 ± 5.3 µM in assay [5] and more than 50 µM in assay [6]. Also, in the assay on Vero cells, the CC50 is less than 50 µM.
